Measured values published in patent US4902505A, “Chimeric peptides for neuropeptide delivery through the blood-brain barrier” (Alkermes, priority 1988, dated 1990).

Tests used:
blood-brain barrier = settings: general statement, no test described; cited from earlier work
[1] = test system: isolated bovine brain microvessels; test: Radioreceptor assay (uptake) using isolated bovine brain microvessels; assay type: cell-based; settings: up to 60 minutes incubation at room temperature; FIG. 1
Method: Somatostatin was obtained from Peninsula Laboratories and tritiated by reductive methylation using ^3 H-sodium borohydride. […] The two compounds were coupled together using SPDP as described in Example 1. Bovine brain microvessels were isolated as described in Pardridge, et al., "Rapid Sequestration And Degradation Of Somatostatin Analogues By Isolated Brain Microvessels", (Journal of Neurochemistry, Vol. 44, No. 4, 1985, pp. 1178-1184).
^3 H-somatostatin was added to one set of microvessels for up to 60 minutes incubation at room temperature. In another set of incubations, the ^3 H-somatostatin-^125 I-insulin chimera was also added. […] The uptake of the free somatostatin likely represents nonspecific binding as described in the article mentioned above (Journal of Neurochemistry, Vol. 44, No. 4, 1985).
Previous studies have shown that the receptor-mediated endocytosis of peptides in the isolated brain microvessels is a reliable index of the in vivo blood-brain barrier receptor transport activity of peptides in vivo (see my previously-mentioned article in Endocrine Reviews, Vol. 7, No. 3, Aug. 1986).

| Compound | transport through the blood-brain barrier (blood-brain barrier) | change of uptake with time [1] |
| --- | --- | --- |
| cationized albumin: bovine serum albumin covalently coupled with hexamethylene-diamine | enters the brain rapidly | – |
| C[C@H](N)C(=O)NCC(=O)N[C@H]1CSSC[C@@H](C(=O)O)NC(=O)[C@H](CO)NC(=O)[C@H]([C@@H](C)O)NC(=O)[C@H](Cc2ccccc2)NC(=O)[C@H]([C@@H](C)O)NC(=O)[C@H](CCCCN)NC(=O)[C@H](Cc2c[nH]c3ccccc23)NC(=O)[C@H](Cc2ccccc2)NC(=O)[C@H](Cc2ccccc2)NC(=O)[C@H](CC(N)=O)NC(=O)[C@H](CCCCN)NC1=O [somatostatin] | not transported | no increase in time |
